Results reported in patent publication US20250000843A1, “LIGNAN-INSPIRED COMPOUNDS, METHODS OF MAKING, AND USING THEREOF” (IOWAIBO, INC., priority 2023, published 2025).

What was measured:
telomerase [1] = target: T1, telomerase (Homo sapiens, UniProt O14746); test: Q-TRAP telomerase activity in PC3 prostate cancer cells; type: cell-based; set-up: allow the enzymatic addition of telomeric DNA repeats by endogenous telomerase; endogenous in cells; host or cells: PC3 prostate cancer cells (protein extract of lysed cell pellets); key to Significance of RTA difference vs. control: No: non-significant; Yes (*): p < 0.05; Yes (**): p < 0.01; Yes (***): p < 0.001; Yes (****): p < 0.0001
Method: The general mechanism of the Q-TRAP technique involves cellular pellets being lysed for protein extraction which is then subsequently quantified and stored under specific conditions to avoid protein degradation. Protein obtained in the process was used within 72 hours and samples were stored at 4° C. Telomerase protein extracts are then incubated with a specific oligonucleotide substrate to allow the enzymatic addition of telomeric DNA repeats by endogenous telomerase. Following the enzymatic reaction, telomerase extension products are then amplified and quantified by real-time qPCR. In real time PCR, a positive reaction is detected by accumulation of a fluorescent signal. The Ct (cycle threshold) is defined as the number of cycles required for fluorescence to cross the threshold (i.e.: exceeds background levels). […] Data are reported as relative telomerase activity (RTA). […] Telomeric repeat amplification protocol (TRAP) was modified for quantitative real-time PCR (Q-TRAP) and was used to determine the effect of dibenzyl butyl lactone derivative on telomerase activity in prostate cancer cell. The same methods as used in Example 3 were employed. The same abbreviation scheme as presented in Table 7 is used throughout this example as well.

telomerase [2] = target: T1, telomerase; test: Q-TRAP telomerase activity in MCF7 breast cancer cells; type: cell-based; set-up: allow the enzymatic addition of telomeric DNA repeats by endogenous telomerase; endogenous in cells

T1 sequence (O14746 whole entry): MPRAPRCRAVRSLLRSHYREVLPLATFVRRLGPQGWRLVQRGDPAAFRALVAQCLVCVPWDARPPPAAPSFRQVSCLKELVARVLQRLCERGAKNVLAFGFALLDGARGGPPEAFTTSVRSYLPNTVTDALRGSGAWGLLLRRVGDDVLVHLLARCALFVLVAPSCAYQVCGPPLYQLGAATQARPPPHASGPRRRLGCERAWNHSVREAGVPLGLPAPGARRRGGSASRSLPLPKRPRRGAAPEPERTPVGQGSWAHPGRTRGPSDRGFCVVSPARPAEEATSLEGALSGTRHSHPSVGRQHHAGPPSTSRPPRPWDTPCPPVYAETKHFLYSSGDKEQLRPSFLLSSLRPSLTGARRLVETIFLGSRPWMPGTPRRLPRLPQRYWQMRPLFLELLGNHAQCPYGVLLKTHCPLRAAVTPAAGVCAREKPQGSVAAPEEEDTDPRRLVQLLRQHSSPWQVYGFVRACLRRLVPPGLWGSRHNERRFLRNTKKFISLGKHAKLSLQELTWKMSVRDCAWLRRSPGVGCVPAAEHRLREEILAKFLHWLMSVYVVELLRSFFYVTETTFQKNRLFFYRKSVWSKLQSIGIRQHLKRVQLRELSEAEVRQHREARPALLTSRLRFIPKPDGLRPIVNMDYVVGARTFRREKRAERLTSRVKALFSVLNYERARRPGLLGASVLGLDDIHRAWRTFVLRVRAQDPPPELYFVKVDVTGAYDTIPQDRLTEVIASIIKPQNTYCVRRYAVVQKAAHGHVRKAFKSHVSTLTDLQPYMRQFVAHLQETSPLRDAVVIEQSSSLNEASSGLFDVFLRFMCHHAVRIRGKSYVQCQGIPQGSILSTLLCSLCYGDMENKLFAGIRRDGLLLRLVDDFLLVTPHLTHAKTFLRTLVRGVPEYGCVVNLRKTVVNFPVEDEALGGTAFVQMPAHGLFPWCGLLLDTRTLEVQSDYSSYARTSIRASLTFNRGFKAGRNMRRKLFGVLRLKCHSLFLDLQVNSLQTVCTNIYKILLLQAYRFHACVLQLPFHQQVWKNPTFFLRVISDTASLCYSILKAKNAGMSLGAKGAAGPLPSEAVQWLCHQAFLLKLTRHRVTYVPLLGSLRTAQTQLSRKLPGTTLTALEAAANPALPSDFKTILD
T1 sequence (O60832 whole entry partner): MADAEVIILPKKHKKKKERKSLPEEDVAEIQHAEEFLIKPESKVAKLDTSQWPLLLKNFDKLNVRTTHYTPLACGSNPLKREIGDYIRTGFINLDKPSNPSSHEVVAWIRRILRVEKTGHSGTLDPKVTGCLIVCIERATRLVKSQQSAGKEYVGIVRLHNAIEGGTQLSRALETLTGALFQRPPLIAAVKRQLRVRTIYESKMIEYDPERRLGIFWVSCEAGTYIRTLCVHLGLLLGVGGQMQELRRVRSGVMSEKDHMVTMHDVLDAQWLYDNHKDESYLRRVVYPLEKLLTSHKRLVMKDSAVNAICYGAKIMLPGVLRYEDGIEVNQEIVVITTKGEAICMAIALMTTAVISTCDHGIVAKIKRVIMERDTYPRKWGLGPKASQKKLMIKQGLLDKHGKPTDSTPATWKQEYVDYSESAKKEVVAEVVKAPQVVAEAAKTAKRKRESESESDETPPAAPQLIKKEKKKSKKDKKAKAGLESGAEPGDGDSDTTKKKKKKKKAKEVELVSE
T1 sequence (Q9NPE3 whole entry partner): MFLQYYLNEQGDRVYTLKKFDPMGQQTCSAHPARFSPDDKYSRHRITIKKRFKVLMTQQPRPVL
T1 sequence (Q9NX24 whole entry partner): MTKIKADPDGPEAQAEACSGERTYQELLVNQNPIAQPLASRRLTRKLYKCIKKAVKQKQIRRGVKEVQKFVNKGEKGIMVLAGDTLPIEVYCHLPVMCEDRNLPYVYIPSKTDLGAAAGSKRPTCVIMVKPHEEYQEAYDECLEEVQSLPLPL
T1 sequence (Q9NY12 whole entry partner): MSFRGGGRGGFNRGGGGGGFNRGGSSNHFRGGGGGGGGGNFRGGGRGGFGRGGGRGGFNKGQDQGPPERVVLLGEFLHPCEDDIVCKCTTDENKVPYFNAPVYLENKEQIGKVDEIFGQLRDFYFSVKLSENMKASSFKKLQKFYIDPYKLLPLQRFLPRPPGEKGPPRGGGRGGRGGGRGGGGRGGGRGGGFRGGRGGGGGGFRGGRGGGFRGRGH
T1 sequence (Q9BUR4 whole entry partner): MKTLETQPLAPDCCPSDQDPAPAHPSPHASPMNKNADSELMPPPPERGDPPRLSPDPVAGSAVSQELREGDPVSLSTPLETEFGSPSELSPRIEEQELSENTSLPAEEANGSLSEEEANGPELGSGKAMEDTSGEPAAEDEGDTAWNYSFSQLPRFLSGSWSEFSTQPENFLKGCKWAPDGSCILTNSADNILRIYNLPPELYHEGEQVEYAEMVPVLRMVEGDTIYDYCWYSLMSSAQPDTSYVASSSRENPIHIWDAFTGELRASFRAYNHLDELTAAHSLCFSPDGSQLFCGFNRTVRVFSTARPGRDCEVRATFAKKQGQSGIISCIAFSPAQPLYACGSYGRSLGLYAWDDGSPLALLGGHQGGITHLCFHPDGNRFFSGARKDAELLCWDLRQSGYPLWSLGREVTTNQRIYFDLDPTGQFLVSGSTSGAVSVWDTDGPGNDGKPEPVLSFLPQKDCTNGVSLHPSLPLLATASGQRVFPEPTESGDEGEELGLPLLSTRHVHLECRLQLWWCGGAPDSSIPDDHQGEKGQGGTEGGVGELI

## O=C1OC[C@H](Cc2cccc(O)c2)[C@H]1Cc1cccc(O)c1 (racemic) [Enterolactone, reference compound]
Telomerase [1]; PC3, 2.5 μM, 24 Hours
  Telomerase Activity RTA (%): 61.02%
Telomerase [1]; PC3, 2.5 μM, 48 Hours
  Telomerase Activity RTA (%): 3.50%
Telomerase [1]; PC3, 2.5 μM, 72 Hours
  Telomerase Activity RTA (%): 13.88%
Telomerase [1]; PC3, 5 μM, 24 Hours
  Telomerase Activity RTA (%): 55.90%
Telomerase [1]; PC3, 5 μM, 48 Hours
  Telomerase Activity RTA (%): 3.31%
Telomerase [1]; PC3, 5 μM, 72 Hours
  Telomerase Activity RTA (%): 10.65%
Telomerase [1]; PC3, 10 μM, 24 Hours
  Telomerase Activity RTA (%): 62.45%
Telomerase [1]; PC3, 10 μM, 48 Hours
  Telomerase Activity RTA (%): 17.89%
Telomerase [1]; PC3, 10 μM, 72 Hours
  Telomerase Activity RTA (%): 12.63%
Telomerase [1]; PC3, 20 μM, 24 Hours
  Telomerase Activity RTA (%): 56.77%
Telomerase [1]; PC3, 20 μM, 48 Hours
  Telomerase Activity RTA (%): 25.39%
Telomerase [1]; PC3, 20 μM, 72 Hours
  Telomerase Activity RTA (%): 5.15%
Telomerase [1]; PC3, 40 μM, 24 Hours
  Telomerase Activity RTA (%): 43.75%
Telomerase [1]; PC3, 40 μM, 48 Hours
  Telomerase Activity RTA (%): 70.42%
Telomerase [1]; PC3, 40 μM, 72 Hours
  Telomerase Activity RTA (%): 6.57%
Telomerase [1]; PC3, 24 h
  IC50: 21.9 µM
Telomerase [1]; PC3, 24 hours
  telomerase activity levels of treated groups compared to control: lower telomerase activity levels compared to control
Telomerase [1]; PC3, 24 hours, 2.5 μM
  Significance of RTA difference vs. control: No
Telomerase [1]; PC3, 24 hours, 5 μM
  Significance of RTA difference vs. control: No
Telomerase [1]; PC3, 24 hours, 10 μM
  Significance of RTA difference vs. control: No
Telomerase [1]; PC3, 24 hours, 20 μM
  Significance of RTA difference vs. control: No
Telomerase [1]; PC3, 24 hours, 40 μM
  Significance of RTA difference vs. control: Yes (*) (Yes (*): p < 0.05)
Telomerase [1]; PC3, 48 h
  IC50: 0.05 µM
Telomerase [1]; PC3, 48 hours
  telomerase activity levels of treated groups compared to control: four treated groups presented a reduction in RTA
Telomerase [1]; PC3, 48 hours, 2.5 μM
  Significance of RTA difference vs. control: Yes (***) (Yes (***): p < 0.001)
Telomerase [1]; PC3, 48 hours, 5 μM
  Significance of RTA difference vs. control: Yes (***) (Yes (***): p < 0.001)
Telomerase [1]; PC3, 48 hours, 10 μM
  Significance of RTA difference vs. control: Yes (**) (Yes (**): p < 0.01)
Telomerase [1]; PC3, 48 hours, 20 μM
  Significance of RTA difference vs. control: Yes (**) (Yes (**): p < 0.01)
Telomerase [1]; PC3, 48 hours, 40 μM
  Significance of RTA difference vs. control: No
Telomerase [1]; PC3, 72 h
  IC50: 10.7 µM
Telomerase [1]; PC3, 72 hours
  telomerase activity levels of treated groups compared to control: no significant differences were detected between control and treated groups
Telomerase [1]; PC3, 72 hours, 2.5 μM
  Significance of RTA difference vs. control: No
Telomerase [1]; PC3, 72 hours, 5 μM
  Significance of RTA difference vs. control: No
Telomerase [1]; PC3, 72 hours, 10 μM
  Significance of RTA difference vs. control: No
Telomerase [1]; PC3, 72 hours, 20 μM
  Significance of RTA difference vs. control: No
Telomerase [1]; PC3, 72 hours, 40 μM
  Significance of RTA difference vs. control: No
Telomerase [2]; MCF7, 24 h
  IC50: > 40 µM
Telomerase [2]; MCF7, 48 h
  IC50: > 40 µM
Telomerase [2]; MCF7, 72 h
  IC50: > 40 µM
Telomerase [2]; MCF7, Q-TRAP
  telomerase activity following treatment as compared to control (untreated) groups: no significant difference in telomerase activity

## O=C1OCC(Cc2ccc3c(c2)OCO3)/C1=C\c1cccc(O)c1 (single isomer, unassigned) [Enantiomer A, 3-[(3,4-dimethoxyphenyl)cyclopentyl], 4-[(3-hydroxyphenol)methyl]oxolan-2-one]
Telomerase [1]; PC3, 2.5 μM, 24 Hours
  Telomerase Activity RTA (%): 49.67%
Telomerase [1]; PC3, 2.5 μM, 48 Hours
  Telomerase Activity RTA (%): 21.48%
Telomerase [1]; PC3, 2.5 μM, 72 Hours
  Telomerase Activity RTA (%): 18.63%
Telomerase [1]; PC3, 5 μM, 24 Hours
  Telomerase Activity RTA (%): 44.11%
Telomerase [1]; PC3, 5 μM, 48 Hours
  Telomerase Activity RTA (%): 7.86%
Telomerase [1]; PC3, 5 μM, 72 Hours
  Telomerase Activity RTA (%): 15.77%
Telomerase [1]; PC3, 10 μM, 24 Hours
  Telomerase Activity RTA (%): 20.76%
Telomerase [1]; PC3, 10 μM, 48 Hours
  Telomerase Activity RTA (%): 3.60%
Telomerase [1]; PC3, 10 μM, 72 Hours
  Telomerase Activity RTA (%): 19.40%
Telomerase [1]; PC3, 20 μM, 24 Hours
  Telomerase Activity RTA (%): 22.61%
Telomerase [1]; PC3, 20 μM, 48 Hours
  Telomerase Activity RTA (%): 2.51%
Telomerase [1]; PC3, 20 μM, 72 Hours
  Telomerase Activity RTA (%): 5.20%
Telomerase [1]; PC3, 40 μM, 24 Hours
  Telomerase Activity RTA (%): 29.78%
Telomerase [1]; PC3, 40 μM, 48 Hours
  Telomerase Activity RTA (%): 6.23%
Telomerase [1]; PC3, 40 μM, 72 Hours
  Telomerase Activity RTA (%): 1.48%
Telomerase [1]; PC3, 24 h
  IC50: 5.18 µM
Telomerase [1]; PC3, 24 hours
  telomerase activity levels of treated groups compared to control: lower telomerase activity levels compared to control
Telomerase [1]; PC3, 24 hours, 2.5 μM
  Significance of RTA difference vs. control: No
Telomerase [1]; PC3, 24 hours, 5 μM
  Significance of RTA difference vs. control: Yes (*) (Yes (*): p < 0.05)
Telomerase [1]; PC3, 24 hours, 10 μM
  Significance of RTA difference vs. control: Yes (**) (Yes (**): p < 0.01)
Telomerase [1]; PC3, 24 hours, 20 μM
  Significance of RTA difference vs. control: Yes (***) (Yes (***): p < 0.001)
Telomerase [1]; PC3, 24 hours, 40 μM
  Significance of RTA difference vs. control: Yes (**) (Yes (**): p < 0.01)
Telomerase [1]; PC3, 48 h
  IC50: 4.71 µM
Telomerase [1]; PC3, 48 hours
  telomerase activity levels of treated groups compared to control: lower telomerase activity levels compared to control
Telomerase [1]; PC3, 48 hours, 2.5 μM
  Significance of RTA difference vs. control: No
Telomerase [1]; PC3, 48 hours, 5 μM
  Significance of RTA difference vs. control: Yes (*) (Yes (*): p < 0.05)
Telomerase [1]; PC3, 48 hours, 10 μM
  Significance of RTA difference vs. control: Yes (**) (Yes (**): p < 0.01)
Telomerase [1]; PC3, 48 hours, 20 μM
  Significance of RTA difference vs. control: Yes (**) (Yes (**): p < 0.01)
Telomerase [1]; PC3, 48 hours, 40 μM
  Significance of RTA difference vs. control: Yes (*) (Yes (*): p < 0.05)
Telomerase [1]; PC3, 72 h
  IC50: 18.7 µM
Telomerase [1]; PC3, 72 hours
  telomerase activity levels of treated groups compared to control: lower telomerase activity levels compared to control
Telomerase [1]; PC3, 72 hours, 2.5 μM
  Significance of RTA difference vs. control: No
Telomerase [1]; PC3, 72 hours, 5 μM
  Significance of RTA difference vs. control: Yes (*) (Yes (*): p < 0.05)
Telomerase [1]; PC3, 72 hours, 10 μM
  Significance of RTA difference vs. control: No
Telomerase [1]; PC3, 72 hours, 20 μM
  Significance of RTA difference vs. control: Yes (*) (Yes (*): p < 0.05)
Telomerase [1]; PC3, 72 hours, 40 μM
  Significance of RTA difference vs. control: Yes (**) (Yes (**): p < 0.01)
Telomerase [1]; PC3 prostate cancer cell line
  telomerase inhibition effect: exhibits a telomerase inhibition effect in a PC3 prostate cancer cell line that is more prolonged throughout all time points
Telomerase [2]; MCF7, 2.5 μM, 24 Hours
  Telomerase Activity RTA (%): 115.47%
Telomerase [2]; MCF7, 2.5 μM, 48 Hours
  Telomerase Activity RTA (%): 49.73%
Telomerase [2]; MCF7, 2.5 μM, 72 Hours
  Telomerase Activity RTA (%): 15.70%
Telomerase [2]; MCF7, 5 μM, 24 Hours
  Telomerase Activity RTA (%): 35.54%
Telomerase [2]; MCF7, 5 μM, 48 Hours
  Telomerase Activity RTA (%): 29.14%
Telomerase [2]; MCF7, 5 μM, 72 Hours
  Telomerase Activity RTA (%): 14.77%
Telomerase [2]; MCF7, 10 μM, 24 Hours
  Telomerase Activity RTA (%): 40.24%
Telomerase [2]; MCF7, 10 μM, 48 Hours
  Telomerase Activity RTA (%): 28.47%
Telomerase [2]; MCF7, 10 μM, 72 Hours
  Telomerase Activity RTA (%): 15.87%
Telomerase [2]; MCF7, 20 μM, 24 Hours
  Telomerase Activity RTA (%): 25.50%
Telomerase [2]; MCF7, 20 μM, 48 Hours
  Telomerase Activity RTA (%): 41.20%
Telomerase [2]; MCF7, 20 μM, 72 Hours
  Telomerase Activity RTA (%): 5.82%
Telomerase [2]; MCF7, 40 μM, 24 Hours
  Telomerase Activity RTA (%): 62.53%
Telomerase [2]; MCF7, 40 μM, 48 Hours
  Telomerase Activity RTA (%): 36.82%
Telomerase [2]; MCF7, 40 μM, 72 Hours
  Telomerase Activity RTA (%): 0.86%
Telomerase [2]; MCF7, 24 h
  IC50: ~2.49 µM
Telomerase [2]; MCF7, 24 hours
  telomerase activity levels of treated groups compared to control: lower telomerase activity levels compared to control
Telomerase [2]; MCF7, 24 hours, 5 μM
  Significance of RTA difference vs. control: YES (*)
Telomerase [2]; MCF7, 24 hours, 10 μM
  Significance of RTA difference vs. control: YES (*)
Telomerase [2]; MCF7, 24 hours, 20 μM
  Significance of RTA difference vs. control: YES (*)
Telomerase [2]; MCF7, 24 hours, 40 μM
  Significance of RTA difference vs. control: YES (*)
Telomerase [2]; MCF7, 48 h
  IC50: 2.23 µM
Telomerase [2]; MCF7, 48 hours
  telomerase activity levels of treated groups compared to control: lower telomerase activity levels compared to control
Telomerase [2]; MCF7, 48 hours, 5 μM
  Significance of RTA difference vs. control: YES (*)
Telomerase [2]; MCF7, 48 hours, 10 μM
  Significance of RTA difference vs. control: YES (**)
Telomerase [2]; MCF7, 48 hours, 40 μM
  Significance of RTA difference vs. control: YES (*)
Telomerase [2]; MCF7, 72 h
  IC50: 19.8 µM
Telomerase [2]; MCF7, 72 hours
  telomerase activity levels of treated groups compared to control: groups treated with the two highest concentrations presented further lower RTA levels
Telomerase [2]; MCF7, 72 hours, 40 μM
  Significance of RTA difference vs. control: YES (**)
Telomerase [2]; MCF7 breast cancer cells
  telomerase inhibition effect: exhibit a telomerase inhibition effect
